In the assay the target is purified HLA-DRB1*0101 (Homo sapiens, UniProt P01903+P01911, A100R/D57E/F55L/F60I/F76Y/I96L/L162R/M171V/P40L/Q125E/R42F/V115G/Y59C). The assay is described as follows: biochemical. It counts as binding.

pIC50: −log10 of the molar value. Where a SMILES comes first, the peptide text is derived from it.

One may read the pIC50 as −log10 of the IC50, conventionally taken in molar units. A lower pIC50 goes with a high IC50.

Regarding `CC(C)C[C@H](NC(=O)[C@H](Cc1ccccc1)NC(=O)[C@H](CC(C)C)NC(=O)[C@@H](NC(=O)[C@@H](NC(=O)[C@@H](NC(=O)[C@@H](N)Cc1ccccc1)[C@@H](C)O)[C@@H](C)O)[C@@H](C)O)C(=O)N[C@@H](Cc1c[nH]cn1)C(=O)N[C@@H](CC(C)C)C(=O)N[C@H](C(=O)NCC(=O)N[C@@H](Cc1ccccc1)C(=O)N1CCC[C@H]1C(=O)N[C@H](C(=O)N[C@@H](Cc1c[nH]cn1)C(=O)O)[C@@H](C)O)C(C)C` [SABV GPC436-450] (H-FTTTLFLHLVGFPTH-OH), the negative-log IC50 (pIC50) was 9.04.
Consider `CC[C@H](C)[C@H](NC(=O)[C@H](Cc1c[nH]cn1)NC(=O)[C@H](CCCNC(=N)N)NC(=O)[C@H](Cc1c[nH]cn1)NC(=O)[C@@H](NC(=O)[C@@H]1CCCN1C(=O)[C@H](Cc1ccccc1)NC(=O)CNC(=O)[C@@H](NC(=O)[C@H](CC(C)C)NC(=O)[C@H](Cc1c[nH]cn1)NC(=O)[C@H](CC(C)C)NC(=O)[C@@H](N)Cc1ccccc1)C(C)C)[C@@H](C)O)C(=O)N[C@@H](CCCNC(=N)N)C(=O)NCC(=O)O` [SABV GPC441-455] (H-FLHLVGFPTHRHIRG-OH), for which the pIC50 is 10.05.
On to `CC[C@H](C)[C@H](NC(=O)[C@@H](N)Cc1ccccc1)C(=O)N[C@H](C(=O)N[C@@H](Cc1ccccc1)C(=O)N[C@@H](CC(C)C)C(=O)N[C@@H](CC(C)C)C(=O)N[C@@H](CC(C)C)C(=O)N[C@@H](C)C(=O)NCC(=O)N[C@@H](CCCNC(=N)N)C(=O)N[C@@H](CO)C(=O)N[C@@H](CS)C(=O)N[C@@H](CO)C(=O)N[C@@H](Cc1ccc(O)cc1)C(=O)N[C@@H](CCCCN)C(=O)O)C(C)C` [WWAV GPC46-60] (H-FIVFLLLAGRSCSYK-OH), for which the pIC50 is 8.92.
The result for `CC[C@H](C)[C@H](NC(=O)[C@H](CC(C)C)NC(=O)[C@H](Cc1c[nH]cn1)NC(=O)[C@H](CC(=O)O)NC(=O)[C@H](CO)NC(=O)[C@H](CCC(=O)O)NC(=O)[C@H](CC(C)C)NC(=O)[C@H](CC(C)C)NC(=O)[C@H](Cc1c[nH]c2ccccc12)NC(=O)[C@H](CCC(N)=O)NC(=O)[C@H](CC(N)=O)NC(=O)[C@H](CCCNC(=N)N)NC(=O)[C@@H](N)Cc1ccccc1)C(=O)N[C@@H](CO)C(=O)N[C@@H](CCC(=O)O)C(=O)O` [WWAV GPC386-400] (H-FRNQWLLESDHLISE-OH) reads 8.80.

Source of the values: paper PMC2880318 (Immunome Research, 2010).
